Laboratory results taken from patent EP4035684A1, “AFFINITY ILLUDOFULVENE CONJUGATES” (AF Chemical LLC, priority 2019, dated 2022).
Where a SMILES comes first, the peptide text is derived from it. [ ]: non-standard residue; d: D form. The star is where a group is joined. ξ: configuration not given here. X4 = CC1=C(C*)C2=C(C)C3(CC3)[C@@](C)(O)C(=O)C2=C1; ξC = NC(CS)C(=O)O

Assays:
NCI 60 cell line panel [1] = conditions: cited from earlier work; for Mean TGI cytostatic / GI50: mean over NCI DTP 60 cell lines; for GI50: read-out: Mean GI50 inhibition; for CC50: human, nci 60 cell lines
MV522 cell line [2] = assay: cells; format: cell-based; conditions: read-out: Mean IC50 value (nM) ± SD, N=3 unless otherwise indicated, MV522 Target Cell Line, 2 hr exposure
NCI 60 cell line panel [3] = assay: NCI DTP 60 cell line screen assay; conditions: for Cytotoxicity: ability to actually kill tumor cells versus only inhibiting growth
Description: An ADC is engulfed by a tumor cell, transported to the endosomes (pH < 6.0) and then into the lysozomes (pH < 4). […] 4) Cancer cells can become resistant to various toxins and drugs through the development of what is termed multi-drug resistance. This process is known to occur through several different mechanisms.

MV522 cell line [4] = assay: 48 hour exposure, growth or viability by Trypan Blue Exclusion assay, target cell line; format: cell-based; conditions: read-out: Mean IC50 value (nM) ± SD, N=3 unless otherwise indicated
8392B cell line [5] = assay: cells; format: cell-based
8392B cell line [6] = assay: Two hour toxicity: inhibition of DNA synthesis activity, nontarget cell line; format: cell-based; conditions: read-out: Mean IC50 value (nM) ± SD, N=3 unless otherwise indicated; 8392B Nontarget Cell Line; 2 hr exposure; 8392B nontarget cell line, 2 hr exposure; mean ± SD, N=3 unless otherwise indicated
[7] = test system: Prostate LnCAP (positive PSA); assay: Activity of PSA cleavable analogs against PSA positive cell line, 48 hour exposure; format: cell-based; conditions: N=3, mean ± SD
[8] = test system: Prostate DuPro (trace PSA); assay: Activity of PSA cleavable analogs against trace PSA cell line, 48 hour exposure; format: cell-based; conditions: N=3, mean ± SD
[9] = test system: Prostate PC3 (negative PSA); assay: Activity of PSA cleavable analogs against PSA negative cell line, 48 hour exposure; format: cell-based; conditions: N=3, mean ± SD
[10] = MV522 target cell line, mean ± SD, N=3 unless otherwise indicated
[11] = read-out: Mean IC50 value (nM) ± SD, N=3 unless otherwise indicated, 8392B Nontarget Cell Line, 48 hr exposure, 8392B nontarget cell line, mean ± SD, N=3 unless otherwise indicated

Row | Compound | IC50 (MV522 cell line [2]; [10]) [nM] | IC50 (MV522 cell line [4]) [nM] | IC50 (8392B cell line [5]; [11]) [nM] | IC50 (8392B cell line [6]) [nM] | also measured
1 | CO[C@@H]1[C@H](O)CC[C@]2(CO2)[C@H]1[C@@]1(C)O[C@@H]1CC=C(C)C [Fumagillol] | – | – | – | – | Mean TGI cytostatic (NCI 60 cell line panel [1]): 9,850 nM; GI50 (NCI 60 cell line panel [1]): 6130 nM
2 | COc1cc2cc(c1Cl)N(C)C(=O)C[C@H](OC(=O)[C@H](C)N(C)C(C)=O)[C@]1(C)O[C@H]1[C@H](C)[C@@H]1C[C@@](O)(NC(=O)O1)[C@H](OC)/C=C/C=C(\C)C2 [Maytansine] | – | – | – | – | Mean TGI cytostatic (NCI 60 cell line panel [1]): 318 nM
3 | C=C1C[C@H]2C=Nc3cc(OCCCOc4cc5c(cc4OC)C(=O)N4CC(=C)C[C@H]4C=N5)c(OC)cc3C(=O)N2C1 [Pyrrolobenzodiazepines] | – | – | – | – | Mean TGI cytostatic (NCI 60 cell line panel [1]): 302 nM; GI50 (NCI 60 cell line panel [1]): 7 nM
4 | CC[C@H](C)[C@H](NC(=O)[C@H]1CCCCN1C)C(=O)N(COC(=O)CC(C)C)[C@H](C[C@@H](OC(C)=O)c1nc(C(=O)N[C@@H](Cc2ccc(O)cc2)C[C@H](C)C(=O)O)cs1)C(C)C [Tubulysin A] | – | – | – | – | CC50 (NCI 60 cell line panel [1]): > 10 µM; Mean TGI cytostatic (NCI 60 cell line panel [1]): 1,318 nM; GI50 (NCI 60 cell line panel [1]): 12 nM
5 | CC1=C(CO)C2=C(C)C3(CC3)[C@@](C)(O)C(=O)C2=C1 [compound 002] | – | – | – | – | IC50 (MV522 cell line [2]; MV522, 2 h): 110 ± 40 nM; MDR Activity (NCI 60 cell line panel [3]): Yes; Activity Value (NCI 60 cell line panel [3]; negative = lyses tumor cells, zero = no growth, positive = slower growth): -15
6 | CC1=C(CSC[C@H](NC(=O)[C@H](CCCNC(=N)N)NC(=O)CNC(=O)[C@H](CC(N)=O)NC(=O)[C@@H](N)CSCC2=C(C)C=C3C(=O)[C@](C)(O)C4(CC4)C(C)=C32)C(=O)O)C2=C(C)C3(CC3)[C@@](C)(O)C(=O)C2=C1 [compound 100] (H-C(X4)NGRC(X4)-OH) | > 10000 | 1700 ± 500 | – | – | –
7 | CC1=C(CSCC(N)C(=O)N[C@@H](CCCNC(=N)N)C(=O)NCC(=O)N[C@@H](CC(N)=O)C(=O)NC(CSCC2=C(C)C=C3C(=O)[C@](C)(O)C4(CC4)C(C)=C32)C(=O)O)C2=C(C)C3(CC3)[C@@](C)(O)C(=O)C2=C1 (stereo partly shown) [compound 101] (H-[ξC](X4)RGN[ξC](X4)-OH) | > 8000 | > 7500 | – | – | –
8 | CC(=O)ON(C(C)=O)c1ccc(C(=O)OC[C@]2(C)C=C3C(=O)[C@](C)(O)C4(CC4)C(C)=C3C2OC(=O)c2ccc(N(OC(C)=O)C(C)=O)cc2)cc1 (stereo partly shown) [compound 140] | – | > 14000 | > 14000 | – | –
9 | COC(=O)C1=C(C(=O)OC)C23C=C(C)C1C2=C(C)C1(CC1)[C@@](C)(O)C3O (stereo partly shown) [compound 141] | – | 3700 ± 800 | – | 13700 ± 1900 | –
10 | COC(=O)C1=C(C(=O)OC)C23C=C(C)C1C2=C(C)C1(CC1)[C@@](C)(O)C3=O (stereo partly shown) [compound 142] | – | 24 ± 7 | – | – | MDR Activity (NCI 60 cell line panel [3]): Yes; Cytotoxicity (NCI 60 cell line panel [3]): Yes
11 | CC(=O)Oc1ccc(-n2nnnc2SCC2=C(C)C=C3C(=O)[C@](C)(O)C4(CC4)C(C)=C32)cc1 [compound 155] | 8200 ± 1200 | 3600 ± 400 | 9100 ± 1100 | 17000 | –
12 | CC(=O)OCC1(C)C=C2C(=O)[C@](C)(O)C3(CC3)C(C)=C2C1O (stereo partly shown) [compound 159] | – | 120 ± 10 | – | 13700 | IC50 (MV522 cell line [2]; MV522, 2 h): 2700 ± 400 nM; MDR Activity (NCI 60 cell line panel [3]): Yes; Cytotoxicity (NCI 60 cell line panel [3]): Yes; IC50 (8392B cell line [5]; 48 h, read-out: Mean IC50 value (nM) ± SD, N=3 unless otherwise indicated, 8392B Nontarget Cell Line, 48 hr exposure): < 10 nM
13 | CC1=C(CCCOC(=O)[C@@H]2CCCN2C(=O)[C@H](CO)NC(=O)OC(C)(C)C)C2=C(C)C3(CC3)[C@@](C)(O)C(=O)C2=C1 [compound 208] | – | 930 ± 160 | – | 25000 | –
14 | CC(=O)N1C[C@H](O)C[C@H]1C(=O)N[C@@H](CO)C(=O)N[C@@H](CO)C(=O)N[C@H](C(=O)N[C@@H](CCC(N)=O)C(=O)N[C@@H](CO)C(=O)N[C@@H](CO)C(=O)N1CCC[C@H]1C(=O)O[C@@H]1C2=C(C)C3(CC3)[C@@](C)(O)C(=O)C2=C[C@@]1(C)CO[Si](C)(C)C(C)(C)C)C1CCCCC1 [compound 215] | – | 490 ± 120 | – | – | IC50 [7]: > 20000 nM
15 | CC(=O)N1C[C@H](O)C[C@H]1C(=O)N[C@@H](CO)C(=O)N[C@@H](CO)C(=O)N[C@H](C(=O)N[C@@H](CCC(N)=O)C(=O)N[C@@H](CO)C(=O)N[C@@H](CO)C(=O)N1CCC[C@H]1C(=O)O[C@@H]1C2=C(C)C3(CC3)[C@@](C)(O)C(=O)C2=CC1(C)C)C1CCCCC1 [compound 216] | – | – | – | – | IC50 [8]: 280 ± 60 nM; IC50 [9]: 190 ± 10 nM; IC50 [7]: 190 ± 30 nM
16 | CC1=C2C(=CC(C)(CO[Si](C)(C)C(C)(C)C)C2OC(=O)c2ccc(S(=O)(=O)F)cc2)C(=O)C(C)(O)C12CC2 (stereo not shown) [compound 219] | > 52000 | > 52 | > 52000 | > 52000 | –

Row | Compound | IC50 (MV522 cell line [2]; [10]) [nM] | IC50 (MV522 cell line [4]) [nM] | IC50 (8392B cell line [5]; [11]) [nM] | IC50 (8392B cell line [6]) [nM] | also measured
17 | CC1=CC2=C(C)C3(CC3)C(C)(O)C(=NO)C2=C1 (stereo not shown) [compound 224] | > 200000 | > 130000 | > 130000 | > 200000 | –
18 | CC1=C2C(=CC(C)(O)C2O)C(=NO)C(C)(O)C12CC2 (stereo not shown) [compound 225] | 47000 | 55000 | 33000 | > 350000 | –
19 | CCCCCCCC/C=C/CCCCCCCC(=O)OCC1=C(C)C=C2C(=O)[C@](C)(O)C3(CC3)C(C)=C21 [compound 226] | > 59000 | > 59000 | > 59000 | > 59000 | –
20 | CC1=C(CCCOC(=O)NCCCl)C2=C(C)C3(CC3)[C@@](C)(O)C(=O)C2=C1 [compound 238] | 780 ± 190 | 57 ± 8 | – | – | –
21 | CC1=C(CCCNS(=O)(=O)c2ccc(C)cc2)C2=C(C)C3(CC3)[C@@](C)(O)C(=O)C2=C1 [compound 242] | – | 580 ± 150 | – | – | –
22 | CC(=O)OCC1(C)C(OC(C)=O)C2=C(C)C3(CC3)C(C)(O)C(=O)C23CC31 (stereo not shown) [compound 250] | 99000 | 137000 | 137000 | > 275000 | –
23 | CC1=C2C(O)C(C)(C)C3CC23C(=O)C(C)(O)C12CC2 (stereo not shown) [compound 252] | > 380000 | – | > 380000 | > 380000 | –
24 | CC1=C(CCCOC(=O)c2cn(CC3=C(C)C=C4C(=O)[C@](C)(O)C5(CC5)C(C)=C43)nn2)C2=C(C)C3(CC3)[C@@](C)(O)C(=O)C2=C1 [compound 257] | – | 320 ± 30 | – | – | –
25 | CC1=C(CCCNS(=O)(=O)NO)C2=CC3(CC3)C(C)(O)C(=O)C2=C1 (stereo not shown) [compound 265] | 810 ± 20 | 8 ± 1 | – | – | –
26 | CC1=C(CNC(=O)NO)C2=C(C)C3(CC3)[C@@](C)(O)C(=O)C2=C1 [compound 277] | – | 190 ± 20 | 9800 | 31000 | –
27 | CC1=C(CNC(=O)NCCO)C2=C(C)C3(CC3)[C@@](C)(O)C(=O)C2=C1 [compound 279] | – | 190 ± 20 | > 9000 | > 90000 | –
28 | CC1=C(CCCNC(=O)NCCO)C2=C(C)C3(CC3)[C@@](C)(O)C(=O)C2=C1 [compound 280] | – | < 80 | > 2800 | > 83000 | –
29 | CC1=C(CNC(=O)NCCCl)C2=C(C)C3(CC3)[C@@](C)(O)C(=O)C2=C1 [compound 282] | 680 ± 60 | – | > 8500 | > 85000 | –
30 | CC1=C(Cn2c(=O)[nH]cc(F)c2=O)C2=C(C)C3(CC3)[C@@](C)(O)C(=O)C2=C1 [compound 287] | 455000 ± 22000 | – | – | 567000 ± 17000 | –
31 | CC1=C(Cn2ccc(=O)[nH]c2=O)C2=C(C)C3(CC3)[C@@](C)(O)C(=O)C2=C1 [compound 289] | 51 ± 4 | 530 ± 150 | > 8800 | > 290000 | –
32 | Halichondrin B | – | – | – | – | CC50 (NCI 60 cell line panel [1]): > 1 µM; Mean TGI cytostatic (NCI 60 cell line panel [1]): 199 nM
